Assay results taken from EP0745599A2, “1-(3-Heterocyclylphenyl)-s-triazine-2,4,6-oxo or thiotrione herbicidal agents” (American Cyanamid Company, priority 1995, dated 1996).

Assays:
Assay type in all cases: in vivo
Settings in all cases: rated four to five weeks after treatment
[1] = system: IPOMOEA SPP.; test: Preemergence herbicidal evaluation, IPOSS (Morningglory Spp.)
How it was run: (§1)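 Visual 0-9 ratings versus control covering stand, vigor, malformation, size and chlorosis, scored 4-5 weeks post-treatment. Test compound in aqueous acetone applied preemergence to freshly seeded soil cups at roughly 0.125-0.50 kg/ha, then kept under standard greenhouse conditions.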

[2] = system: ZEA MAYS L.; test: Postemergence herbicidal evaluation, ZEAMX (Corn, Field)
Method: (§2) In the tests, seedling plants are grown in jiffy flats for about two weeks. The test compounds are dispersed in 50/50 acetone/water mixtures containing 0.5% TWEEN®20, a polyoxyethylene sorbitan monolaurate surfactant of Atlas Chemical Industries, in sufficient quantities to provide the equivalent of about 0.125 kg to 0.500 kg per hectare of active compound when applied to the plants through a spray nozzle operating at 40 psi for a predetermined time. After spraying, the plants are placed on greenhouse benches and are cared for in the usual manner, commensurate with conventional greenhouse practices. From four to five weeks after treatment, the seedling plants are examined and rated according to the rating system set forth below. Where more than one test is involved for a given compound, the data are averaged.
(§3) Results of herbicide evaluation are expressed on a rating scale (0-9). The scale is based upon a visual observation of plant stand, vigor, malformation, size, chlorosis and overall plant appearance as compared with a control.

[3] = system: AMBROSIA ARTEMISIIFOLIA, L.; test: Preemergence herbicidal evaluation, AMBEL (Ragweed, Common)
How it was run: as §1

[4] = system: GLYCINE MAX(L)MERR. CV. WILLIAMS; test: Preemergence herbicidal evaluation, GLXMAW (Soybean, Williams)
How it was run: as §1

[5] = system: TRITICUM AESTIVUM, CV. APOLLO; test: Preemergence herbicidal evaluation, TRZAWO (Wheat, Winter, CV. APOLLO)
How it was run: as §1

[6] = system: ABUTILON THEOPHRASTI, MEDIC.; test: Preemergence herbicidal evaluation, ABUTH (Velvetleaf)
How it was run: as §1

[7] = system: ECHINOCHLOA CRUS-GALLI, (L) BEAU; test: Postemergence herbicidal evaluation, ECHCG (Barnyardgrass)
How it was run: (§4)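 Two-week-old seedlings; spray 40 psi, 0.125–0.500 kg/ha in 50/50 acetone/water, 0.5% TWEEN®20. Greenhouse hold 4–5 wk. Visual 0–9 score (stand, vigor, malformation, size, chlorosis, appearance) vs control; repeats averaged.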

[8] = system: ZEA MAYS L.; test: Preemergence herbicidal evaluation, ZEAMX (Corn, Field)
How it was run: as §1

[9] = system: SETARIA VIRIDIS, (L) BEAU; test: Postemergence herbicidal evaluation, SETVI (Foxtail, Green)
How it was run: as §4

[10] = system: CASSIA OBTUSIFOLIA, L.; test: Postemergence herbicidal evaluation, CASOB (Sicklepod)
Method: as §2, §3

[11] = system: ABUTILON THEOPHRASTI, MEDIC.; test: Postemergence herbicidal evaluation, ABUTH (Velvetleaf)
Method: as §2, §3

[12] = system: TRITICUM AESTIVUM, CV. APOLLO; test: Postemergence herbicidal evaluation, TRZAWO (Wheat, Winter, CV. APOLLO)
Method: as §2, §3

[13] = system: ECHINOCHLOA CRUS-GALLI, (L) BEAU; test: Preemergence herbicidal evaluation, ECHCG (Barnyardgrass)
How it was run: as §1

[14] = system: AMBROSIA ARTEMISIIFOLIA, L.; test: Postemergence herbicidal evaluation, AMBEL (Ragweed, Common)
Method: as §2, §3

[15] = system: CASSIA OBTUSIFOLIA, L.; test: Preemergence herbicidal evaluation, CASOB (Sicklepod)
How it was run: as §1

[16] = system: CHENOPODIUM ALBUM, L.; test: Preemergence herbicidal evaluation, CHEAL (Lambsquarters, Common)
How it was run: as §1

[17] = system: CHENOPODIUM ALBUM, L.; test: Postemergence herbicidal evaluation, CHEAL (Lambsquarters, Common)
Method: as §2, §3

[18] = system: ORYZA SATIVA, L. TEBONNET; test: Preemergence herbicidal evaluation, ORYSAT (Rice, Tebonnet)
How it was run: as §1

[19] = system: ORYZA SATIVA, L. TEBONNET; test: Postemergence herbicidal evaluation, ORYSAT (Rice, Tebonnet)
Method: as §2, §3

[20] = system: GLYCINE MAX(L)MERR. CV. WILLIAMS; test: Postemergence herbicidal evaluation, GLXMAW (Soybean, Williams)
Method: as §2, §3

With `COC(=O)Cn1c(=O)n(C)c(=O)n(-c2cc(N3C(=O)C4=C(CCCC4)C3=O)c(F)cc2F)c1=O` [Compound 10, Methyl 3-[5-(1-cyclohexene-1,2-dicarbox-imido)-2,4-difluorophenyl]-5-methyl-2,4,6-trioxo-s-triazine-1(2H)-acetate] the “Herbicide rating (0-9) IPOSS” value ([1]; 0.125 kg/ha) was 0.0, the “Herbicide rating (0-9) IPOSS” value ([1]; 0.250 kg/ha) was 0.0 and the “Herbicide rating (0-9) IPOSS” value ([1]; 0.500 kg/ha) was 0.0. The “Herbicide rating (0-9) ZEAMX” value ([2]; 0.125 kg/ha) was 4.0, the “Herbicide rating (0-9) ZEAMX” value ([2]; 0.250 kg/ha) was 4.0 and the “Herbicide rating (0-9) ZEAMX” value ([2]; 0.500 kg/ha) was 4.0. The “Herbicide rating (0-9) AMBEL” value ([3]; 0.125 kg/ha) was 0.0, the “Herbicide rating (0-9) AMBEL” value ([3]; 0.250 kg/ha) was 0.0 and the “Herbicide rating (0-9) AMBEL” value ([3]; 0.500 kg/ha) was 0.0. The “Herbicide rating (0-9) GLXMAW” value ([4]; 0.125 kg/ha) was 0.0, the “Herbicide rating (0-9) GLXMAW” value ([4]; 0.250 kg/ha) was 0.0 and the “Herbicide rating (0-9) GLXMAW” value ([4]; 0.500 kg/ha) was 0.0. The “Herbicide rating (0-9) TRZAWO” value ([5]; 0.125 kg/ha) was 0.0, the “Herbicide rating (0-9) TRZAWO” value ([5]; 0.250 kg/ha) was 0.0 and the “Herbicide rating (0-9) TRZAWO” value ([5]; 0.500 kg/ha) was 0.0. For the same compound, the “Herbicide rating (0-9) ABUTH” value ([6]; 0.250 kg/ha) was 0.0, the “Herbicide rating (0-9) ABUTH” value ([6]; 0.500 kg/ha) was 0.0 and the “Herbicide rating (0-9) ECHCG” value ([7]; 0.125 kg/ha) was 0.0. For the same compound, the “Herbicide rating (0-9) ECHCG” value ([7]; 0.250 kg/ha) was 0.0, the “Herbicide rating (0-9) ECHCG” value ([7]; 0.500 kg/ha) was 0.0 and the “Herbicide rating (0-9) ZEAMX” value ([8]; 0.125 kg/ha) was 0.0. The “Herbicide rating (0-9) ZEAMX” value ([8]; 0.250 kg/ha) was 0.0, the “Herbicide rating (0-9) ZEAMX” value ([8]; 0.500 kg/ha) was 0.0 and the “Herbicide rating (0-9) SETVI” value ([9]; 0.125 kg/ha) was 0.0. The “Herbicide rating (0-9) SETVI” value ([9]; 0.250 kg/ha) was 0.0 and the “Herbicide rating (0-9) SETVI” value ([9]; 0.500 kg/ha) was 0.0.

In the case of `CC(C)OC(=O)Cn1c(=O)n(C)c(=O)n(-c2cc(N3C(=O)C4CSCCN4C3=O)c(F)cc2Cl)c1=O` (centres unmarked) [Compound 12, Isopropyl 3-{2-chloro-4-fluoro-5-[5,6,8,8a-tetrahydro-1,3-dioxo-1H-imidazo[5,1c][1,4]-thiazin-2(3H)-yl]phenyl}tetrahydro-5-methyl-2,4,6-trioxo-s-triazine-1(2H)-acetate], the “Herbicide rating (0-9) CASOB” value ([10]; 0.125 kg/ha) is reported as 9.0, the “Herbicide rating (0-9) CASOB” value ([10]; 0.250 kg/ha) is reported as 9.0 and the “Herbicide rating (0-9) CASOB” value ([10]; 0.500 kg/ha) is reported as 9.0. For the same compound, the “Herbicide rating (0-9) ABUTH” value ([11]; 0.125 kg/ha) was 9.0, the “Herbicide rating (0-9) ABUTH” value ([11]; 0.250 kg/ha) was 9.0 and the “Herbicide rating (0-9) ABUTH” value ([11]; 0.500 kg/ha) was 9.0. For the same compound, the “Herbicide rating (0-9) TRZAWO” value ([12]; 0.125 kg/ha) was 2.5, the “Herbicide rating (0-9) TRZAWO” value ([12]; 0.250 kg/ha) was 2.5 and the “Herbicide rating (0-9) TRZAWO” value ([12]; 0.500 kg/ha) was 2.5. The “Herbicide rating (0-9) ECHCG” value ([13]; 0.125 kg/ha) was 0.0, the “Herbicide rating (0-9) ECHCG” value ([13]; 0.250 kg/ha) was 0.0 and the “Herbicide rating (0-9) ECHCG” value ([13]; 0.500 kg/ha) was 0.0. For the same compound, the “Herbicide rating (0-9) TRZAWO” value ([5]; 0.125 kg/ha) was 0.0, the “Herbicide rating (0-9) TRZAWO” value ([5]; 0.250 kg/ha) was 0.0 and the “Herbicide rating (0-9) TRZAWO” value ([5]; 0.500 kg/ha) was 0.0. For the same compound, the “Herbicide rating (0-9) AMBEL” value ([14]; 0.125 kg/ha) was 9.0, the “Herbicide rating (0-9) AMBEL” value ([14]; 0.250 kg/ha) was 9.0 and the “Herbicide rating (0-9) AMBEL” value ([14]; 0.500 kg/ha) was 9.0. The “Herbicide rating (0-9) CASOB” value ([15]; 0.125 kg/ha) was 9.0, the “Herbicide rating (0-9) CASOB” value ([15]; 0.250 kg/ha) was 9.0 and the “Herbicide rating (0-9) CASOB” value ([15]; 0.500 kg/ha) was 9.0. For the same compound, the “Herbicide rating (0-9) CHEAL” value ([16]; 0.125 kg/ha) was 9.0, the “Herbicide rating (0-9) CHEAL” value ([16]; 0.250 kg/ha) was 9.0 and the “Herbicide rating (0-9) CHEAL” value ([16]; 0.500 kg/ha) was 9.0. The “Herbicide rating (0-9) CHEAL” value ([17]; 0.125 kg/ha) was 9.0, the “Herbicide rating (0-9) CHEAL” value ([17]; 0.250 kg/ha) was 9.0 and the “Herbicide rating (0-9) CHEAL” value ([17]; 0.500 kg/ha) was 9.0. The “Herbicide rating (0-9) ORYSAT” value ([18]; 0.125 kg/ha) was 0.0, the “Herbicide rating (0-9) ORYSAT” value ([18]; 0.250 kg/ha) was 0.0 and the “Herbicide rating (0-9) ORYSAT” value ([18]; 0.500 kg/ha) was 0.0.

In the case of `C=CCn1c(=O)n(CC=C)c(=O)n(-c2cc(N3C(=O)C4=C(CCCC4)C3=O)c(F)cc2Cl)c1=O` [Compound 19, N-[4-Chloro-5-(3,5-diallylhexahydro-2,4,6-trioxo-s-triazin-1-yl)-2-fluorophenyl]-1-cyclohexene-1,2-dicarboximide], the “Herbicide rating (0-9) TRZAWO” value ([12]; 0.125 kg/ha) is reported as 2.0, the “Herbicide rating (0-9) TRZAWO” value ([12]; 0.250 kg/ha) is reported as 2.0 and the “Herbicide rating (0-9) TRZAWO” value ([12]; 0.500 kg/ha) is reported as 2.0. For the same compound, the “Herbicide rating (0-9) ORYSAT” value ([19]; 0.125 kg/ha) was 2.0, the “Herbicide rating (0-9) ORYSAT” value ([19]; 0.250 kg/ha) was 2.0 and the “Herbicide rating (0-9) ORYSAT” value ([19]; 0.500 kg/ha) was 2.0. For the same compound, the “Herbicide rating (0-9) ECHCG” value ([7]; 0.125 kg/ha) was 0.0, the “Herbicide rating (0-9) ECHCG” value ([7]; 0.250 kg/ha) was 0.0 and the “Herbicide rating (0-9) ECHCG” value ([7]; 0.500 kg/ha) was 0.0. The “Herbicide rating (0-9) GLXMAW” value ([20]; 0.125 kg/ha) was 1.0, the “Herbicide rating (0-9) GLXMAW” value ([20]; 0.250 kg/ha) was 1.0 and the “Herbicide rating (0-9) GLXMAW” value ([20]; 0.500 kg/ha) was 1.0. The “Herbicide rating (0-9) SETVI” value ([9]; 0.125 kg/ha) was 0.0, the “Herbicide rating (0-9) SETVI” value ([9]; 0.250 kg/ha) was 0.0 and the “Herbicide rating (0-9) SETVI” value ([9]; 0.500 kg/ha) was 0.0.
